Measured values as given in paper PMC3597687 (Nucleic Acids Research, 2013).

What follows are compounds tested against T1, LysMSs (S. solfataricus LysM) (Saccharolobus solfataricus, UniProt Q980W9) (assay: EMSA, effect on LysM binding to […]-labelled gltB operator DNA). Details: gltB control region 167-bp fragment; effector 5 mM; 250 nM LysM.
T1 sequence (Q980W9 1-142): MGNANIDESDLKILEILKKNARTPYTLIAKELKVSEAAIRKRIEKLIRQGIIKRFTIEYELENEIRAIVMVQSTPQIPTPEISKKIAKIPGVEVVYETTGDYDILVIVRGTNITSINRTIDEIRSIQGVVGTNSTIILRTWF

Row | Structure (SMILES) | EMSA, effect on LysM binding to 32P-labelled gltB operator DNA
1 | CC[C@H](C)[C@H](N)C(=O)O [L-isoleucine] | arginine, glutamine, isoleucine, leucine, methionine and valine also specifically reduce LysM binding
2 | CC(C)C[C@H](N)C(=O)O [L-leucine] | arginine, glutamine, isoleucine, leucine, methionine and valine also specifically reduce LysM binding
3 | NC(=O)CC[C@H](N)C(=O)O [L-glutamine] | arginine, glutamine, isoleucine, leucine, methionine and valine also specifically reduce LysM binding
4 | CSCC[C@H](N)C(=O)O [L-methionine] | arginine, glutamine, isoleucine, leucine, methionine and valine also specifically reduce LysM binding
5 | CC(C)[C@H](N)C(=O)O [L-valine] | arginine, glutamine, isoleucine, leucine, methionine and valine also specifically reduce LysM binding

Same assay, conditions: gltB control region 167-bp fragment; weak effector, mM range

Row | Structure (SMILES) | EMSA, effect on LysM binding to 32P-labelled gltB operator DNA
6 | NC(=O)NCCC[C@H](N)C(=O)O [L-citrulline] | The effect of L-canavanine and L-citrulline was less pronounced
7 | N=C(N)NOCC[C@H](N)C(=O)O [L-canavanine] | The effect of L-canavanine and L-citrulline was less pronounced
